The source of these data is ChEMBL document CHEMBL4371026, “Prodrugs of the cancer cell selective anti-cancer agent (Z)-2-(1H-indol-3-yl)-3-(isoquinolin-5-yl)acrylonitrile (A131) are orally efficacious in a mouse model of resistant colon cancer” (Bioorg Med Chem Lett, 2019).

In data set [1] the test system is HCT-15. The data set is described as follows: Anticancer activity against paclitaxel-resistant human HCT15 cells xenografted in BALB/c athymic mouse assessed as tumor growth inhibition at 20 mg/kg, ip administered twice a day for 12 days. The class given is functional, organism-based. A general note: Xenograft models place foreign cells or tissue in a host animal.

The test system of data set [2] is BJ. In words: Induction of mitosis in transformed human BJ cells assessed as increase in pH3 Ser10 expression at 5 uM after 24 hrs by Western blot analysis relative to control. The format is functional. Background: Immunoblotting shows a protein as a band on a membrane.
Data set [3] relates to BJ. The data set is described as follows: Induction of autophagy in transformed human BJ cells assessed as increase in LC3-2 to LC3-1 ratio at 5 uM after 24 hrs by Western blot analysis relative to control. The class given is functional.
Data set [4] is described as follows: Stability in simulated gastric fluid TS assessed as parent compound remaining at 24 hrs. The class given is ADME. The conditions noted are these: read-out: Stability.
A short description of data set [5]: Prodrug conversion in pH 7.4 10% FBS assessed as formation of A131 measured at 1 hr by LC-MS/MS analysis relative to parent compound. The format is ADME. The note with it: cattle, pH 7.4, 1 h.
Data set [6] can be described thus: Half life in simulated gastric fluid TS. The class given is ADME.
Data set [7] is described as follows: Prodrug conversion in human plasma assessed as formation of A131 by measuring apparent half life. The class given is ADME, cell-free.
Data set [8] in a line: Prodrug conversion in pH 7.4 10% FBS assessed as formation of A131 measured at 6 hrs by LC-MS/MS analysis relative to parent compound. The format is ADME. The conditions noted are these: cattle, pH 7.4, 6 h.
Data set [9] can be described thus: Prodrug conversion in pH 7.4 10% FBS assessed as formation of A131 by measuring apparent half life. The format is ADME. The conditions noted are these: cattle.
Data set [10] in a line: Stability in human plasma assessed as compound hydrolysis measured within 15 mins. The format is ADME, cell-free. The conditions noted are these: read-out: Drug degradation.
Data set [11] can be described thus: Prodrug conversion in pH 7.4 10% FBS assessed as formation of A131 measured at 3 hrs by LC-MS/MS analysis relative to parent compound. The class given is ADME. The conditions noted are these: cattle, pH 7.4, 3 h.
The nature of data set [12]: Prodrug conversion in pH 7.4 10% FBS assessed as formation of A131 measured at 2 hrs by LC-MS/MS analysis relative to parent compound. The format is ADME. The conditions noted are these: cattle, pH 7.4, 2 h.
Data set [13] is described as follows: Stability in acidic pH assessed as compound hydrolysis. The format is physicochemical.
The nature of data set [14]: Prodrug conversion in mouse plasma assessed as formation of A131 by measuring apparent half life. The format is ADME, cell-free.
A short description of data set [15]: Half life in simplified simulated gastric fluid. The format is ADME.
A short description of data set [16]: Stability in simplified simulated gastric fluid assessed as parent compound remaining at 24 hrs. The conditions noted are these: read-out: Stability. The format is ADME.
The nature of data set [17]: Prodrug conversion in pH 7.4 phosphate buffer saline assessed as formation of A131 by measuring apparent half life. The class given is ADME.
Data set [18] relates to HCT-15. The data set is described as follows: Anticancer activity against paclitaxel-resistant human HCT15 cells xenografted in BALB/c athymic mouse assessed as formation of misaligned chromosomes with multipolar spindles at 40 mg/kg, ip or 80 mg/kg, po administered twice a day for 12 days by immunohistochemical analysis. The format is functional, organism-based.
Data set [19] deals with HCT-15. The data set is described as follows: Anticancer activity against paclitaxel-resistant human HCT15 cells xenografted in BALB/c athymic mouse assessed as tumor growth inhibition at 40 mg/kg, ip administered twice a day for 12 days. The class given is functional, organism-based.
Data set [20] relates to HCT-15. In words: Anticancer activity against paclitaxel-resistant human HCT15 cells xenografted in BALB/c athymic mouse assessed as cell death at 40 mg/kg, ip or 80 mg/kg, po administered twice a day for 12 days by TUNEL staining based assay. The format is functional, organism-based.
For data set [21], the system named is HCT-15. In words: Anticancer activity against paclitaxel-resistant human HCT15 cells xenografted in BALB/c athymic mouse assessed as tumor volume at 20 mg/kg, ip administered twice a day for 12 days measured on day 3 (reference value: 180 +/- 36 mm3). The class given is functional.
Data set [22] has as its system HCT-15. In words: Anticancer activity against paclitaxel-resistant human HCT15 cells xenografted in BALB/c athymic mouse assessed as tumor volume at 20 mg/kg, ip administered twice a day for 12 days measured on day 9 (reference value: 546 +/- 87 mm3). The format is functional.
Data set [23] relates to HCT-15. In words: Anticancer activity against paclitaxel-resistant human HCT15 cells xenografted in BALB/c athymic mouse assessed as tumor volume at 20 mg/kg, ip administered twice a day for 12 days measured on day 12 (reference value: 779 +/- 144 mm3). The format is functional.
Data set [24] deals with HCT-15. In words: Anticancer activity against paclitaxel-resistant human HCT15 cells xenografted in BALB/c athymic mouse assessed as tumor volume at 20 mg/kg, ip administered twice a day for 12 days measured on day 5 (reference value: 329 +/- 45 mm3). The format is functional.
Data set [25] relates to HCT-15. The data set is described as follows: Anticancer activity against paclitaxel-resistant human HCT15 cells xenografted in BALB/c athymic mouse assessed as tumor volume at 20 mg/kg, ip administered twice a day for 12 days measured on day 7 (reference value: 495 +/- 109 mm3). The format is functional.
Data set [26] deals with HCT-15. In words: Anticancer activity against paclitaxel-resistant human HCT15 cells xenografted in BALB/c athymic mouse assessed as tumor volume at 20 mg/kg, ip administered twice a day for 12 days measured on day 1 (reference value: 110 +/- 11 mm3). The format is functional.
For data set [27], the system named is HCT-15. The data set is described as follows: Anticancer activity against paclitaxel-resistant human HCT15 cells xenografted in BALB/c athymic mouse assessed as tumor volume at 40 mg/kg, iv administered thrice every 4 days measured on day 3 (reference value: 180 +/- 36 mm3). The class given is functional.
Data set [28] relates to HCT-15. In words: Anticancer activity against paclitaxel-resistant human HCT15 cells xenografted in BALB/c athymic mouse assessed as tumor volume at 40 mg/kg, iv administered thrice every 4 days measured on day 5 (reference value: 329 +/- 45 mm3). The format is functional.
Data set [29] relates to HCT-15. The data set is described as follows: Anticancer activity against paclitaxel-resistant human HCT15 cells xenografted in BALB/c athymic mouse assessed as tumor growth inhibition at 40 mg/kg, iv administered thrice every 4 days. The class given is functional, organism-based.
The subject of data set [30] is HCT-15. The data set is described as follows: Anticancer activity against paclitaxel-resistant human HCT15 cells xenografted in BALB/c athymic mouse assessed as tumor volume at 40 mg/kg, iv administered thrice every 4 days measured on day 7 (reference value: 495 +/- 109 mm3). The format is functional.
Data set [31] relates to HCT-15. The data set is described as follows: Anticancer activity against paclitaxel-resistant human HCT15 cells xenografted in BALB/c athymic mouse assessed as tumor volume at 40 mg/kg, iv administered thrice every 4 days measured on day 12 (reference value: 779 +/- 144 mm3). The format is functional.
Data set [32] has as its system HCT-15. The data set is described as follows: Anticancer activity against paclitaxel-resistant human HCT15 cells xenografted in BALB/c athymic mouse assessed as tumor volume at 40 mg/kg, iv administered thrice every 4 days measured on day 9 (reference value: 546 +/- 87 mm3). The class given is functional.
Data set [33] deals with HCT-15. In words: Anticancer activity against paclitaxel-resistant human HCT15 cells xenografted in BALB/c athymic mouse assessed as tumor volume at 40 mg/kg, iv administered thrice every 4 days measured on day 1 (reference value: 110 +/- 11 mm3). The format is functional.

The source made the active and inactive calls. The calls are words filed in the database; no cut-off is given here.

Turning to `N#C/C(=C\c1cccc2cnccc12)c1c[nH]c2ccccc12` [listing 1 of 2 here], in data set [1], the TGI result was “Active”.

For the compound `CS(=O)(=O)n1cc(/C(C#N)=C/c2cccc3cnccc23)c2ccccc21`, the “fold change (FC)” value was found to be 0.4 in data set [2] and 0.8 in data set [3].

`N#C/C(=C\c1cccc2cnccc12)c1cn(C(=O)C2CCNCC2)c2ccccc12`: the remaining at 24 h in data set [4] and in data set [16] was 75% in each case. For the same compound, the “fold change (FC)” value in data set [5] was found to be 7.03; in [8] it was 16.5; in data set [11], 14.48; in data set [12] it was 13.17; in data set [2], 10.1; in data set [3] it was 7.3. Also, the half-life in [6] and in [15] was greater than 24 h each time. Also, the “t1/2(app)” value in data set [7] was 4.2 min; in data set [9], 1.14 h; in data set [14], 0.208 h; in data set [17], 2.58 h. For the same compound, in data set [10], the metabolised at 0.25 h is greater than 90%. Besides, the Stability result in data set [13] is “Stable”.

As for `CC(C)(C)OC(=O)NCCC(=O)n1cc(/C(C#N)=C/c2cccc3cnccc23)c2ccccc21`, the “fold change (FC)” value is reported as 4.8 in data set [2] and 3.9 in [3].

On to `CN1CCN(CC(=O)n2cc(/C(C#N)=C/c3cccc4cnccc34)c3ccccc32)CC1` [listing 1 of 2 here], for which the outcome in data set [18] and in [20] was Active. In data set [19], the TGI entry is “Active”.

As to `N#C/C(=C\c1cccc2cnccc12)c1c[nH]c2ccccc12` [listing 2 of 2 here], the entries for the “fold change (FC)” value in [2] and in [3] were 7.3 and 5, respectively.

As to `CCN(CC)C(=O)n1cc(/C(C#N)=C/c2cccc3cnccc23)c2ccccc21`, the “fold change (FC)” value in [2] turned out to be 0.6; in [3] it was 0.9.

Turning to `CC(C)(C)OC(=O)N1CCC(C(=O)n2cc(/C(C#N)=C/c3cccc4cnccc34)c3ccccc32)CC1`, the entries for the “fold change (FC)” value in data set [2] and in data set [3] were 16.2 and 5.2, respectively.

Turning to `N#C/C(=C\c1cccc2cnccc12)c1cn(C(=O)CCN)c2ccccc12`, the “fold change (FC)” value is 2.1 in [2] and 4.1 in data set [3].

Turning to `CC(=O)NCCC(=O)n1cc(/C(C#N)=C/c2cccc3cnccc23)c2ccccc21`, the “fold change (FC)” value in [2] is 2.8; in data set [3], 2.3.

Regarding `COCCOCC(=O)n1cc(/C(C#N)=C/c2cccc3cnccc23)c2ccccc21`, the “fold change (FC)” value in data set [2] stood at 12.8; in [3], 4.1.

Consider `Cl.N#C/C(=C\c1cccc2cnccc12)c1c[nH]c2ccccc12`, for which the Activity is recorded as 125 mm3 in data set [21]; 225 mm3 in data set [22]; 289 mm3 in data set [23]; 153 mm3 in data set [24]; 204 mm3 in data set [25]; 116 mm3 in [26].

With `CN1CCN(CC(=O)n2cc(/C(C#N)=C/c3cccc4cnccc34)c3ccccc32)CC1` [listing 2 of 2 here], the remaining at 24 h in data set [4] and in data set [16] was 50% in each case. In addition, the “fold change (FC)” value is reported as 4.68 in data set [5]; 8.84 in data set [8]; 8.39 in [11]; 7.51 in data set [12]; 11.8 in [2]; 5 in [3]. Also, the half-life in data set [6] and in data set [15] was 24 h each time. Besides, the “t1/2(app)” value in data set [7] came out at 3.42 min; in [9] it was 0.9 h; in data set [14] it was 0.088 h; in [17], 5.3 h. Besides, the metabolised at 0.25 h in data set [10] was greater than 90%. Further, the Stability result in data set [13] is given as “Stable”.

In the case of `Cn1cc(/C(C#N)=C/c2cccc3cnccc23)c2ccccc21`, the “fold change (FC)” value in data set [2] is reported as 1.1; in data set [3] it was 1.6.

In the case of `CN1CCN(C(=O)Cn2cc(/C(C#N)=C/c3cccc4cnccc34)c3ccccc32)CC1`, the “fold change (FC)” value in [2] was found to be 1.3; in data set [3] it was 1.9.

Consider `CC(=O)O[C@H]1C(=O)[C@@]2(C)[C@H]([C@H](OC(=O)c3ccccc3)[C@]3(O)C[C@H](OC(=O)[C@H](O)[C@@H](NC(=O)c4ccccc4)c4ccccc4)C(C)=C1C3(C)C)[C@]1(OC(C)=O)CO[C@@H]1C[C@@H]2O` [PACLITAXEL], for which the Activity in data set [27] is on record as 152 mm3; in data set [28], 288 mm3; in data set [30], 321 mm3; in [31], 638 mm3; in data set [32], 409 mm3; in data set [33], 119 mm3. Besides, in data set [29], the TGI result was “Active”.
